Measured values taken from ChEMBL document CHEMBL1201861, “Genomics of Drug Sensitity in Cancer screening data, Wellcome Trust Sanger Institute”.

Experiments:
ChaGo-K-1 = test: cells; format: functional, cell-based; settings: Homo sapiens;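 further: growth inhibition of ChaGo-K-1 cells, read out with a cell viability assay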
Description: SANGER: Inhibition of human ChaGo-K-1 cell growth in a cell viability assay.

DK-MG = test: cells; format: functional, cell-based; settings: Homo sapiens;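 further: growth inhibition of DK-MG cells, read out with a cell viability assay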
Description: SANGER: Inhibition of human DK-MG cell growth in a cell viability assay.

DMS-79 = test: cells; format: functional, cell-based, Homo sapiens; settings: Homo sapiens, DMS-79
Description: SANGER: Inhibition of human DMS-79 cell growth in a cell viability assay.

EFM-19 = test: cells; format: functional, cell-based; settings: Homo sapiens;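 further: growth inhibition of human EFM-19 cells, measured in a cell viability assay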
Description: SANGER: Inhibition of human EFM-19 cell growth in a cell viability assay.

EGI-1 = test: cells; format: functional, cell-based; settings: Homo sapiens;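 further: cell viability readout used to gauge growth inhibition of EGI-1 cells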
Description: SANGER: Inhibition of human EGI-1 cell growth in a cell viability assay.

EVSA-T = test: cells; format: functional, cell-based, Homo sapiens; settings: Homo sapiens, EVSA-T;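 further: growth inhibition of EVSA-T cells, read out with a cell viability assay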
Description: SANGER: Inhibition of human EVSA-T cell growth in a cell viability assay.

G-401 = test: cells; format: functional, cell-based; settings: Homo sapiens
Description: SANGER: Inhibition of human G-401 cell growth in a cell viability assay.

HC-1 = test: cells; format: functional, cell-based, Homo sapiens; settings: Homo sapiens, HC-1;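 further: growth inhibition of HC-1 cells measured by a cell viability assay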
Description: SANGER: Inhibition of human HC-1 cell growth in a cell viability assay.

HCC1599 = test: cells; format: functional, cell-based, Homo sapiens; settings: Homo sapiens, HCC1599;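 further: growth inhibition of HCC1599 cells, read out in a cell viability assay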
Description: SANGER: Inhibition of human HCC1599 cell growth in a cell viability assay.

HPAF-II = test: cells; format: functional, cell-based; settings: Homo sapiens;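 further: growth inhibition of HPAF-II cells, read out with a cell viability assay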
Description: SANGER: Inhibition of human HPAF-II cell growth in a cell viability assay.

HSC-3 = test: cells; format: functional, cell-based; settings: Homo sapiens
Description: SANGER: Inhibition of human HSC-3 cell growth in a cell viability assay.

HT55 = test: cells; format: functional, cell-based; settings: Homo sapiens;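 further: cell viability readout measuring growth inhibition of human HT55 cells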
Description: SANGER: Inhibition of human HT55 cell growth in a cell viability assay.

Huh-7 = test: cells; format: functional, cell-based; settings: Homo sapiens;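 further: HuH-7 cell growth inhibition, read out with a cell viability assay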
Description: SANGER: Inhibition of human HuH-7 cell growth in a cell viability assay.

IST-SL2 = test: cells; format: functional, cell-based, Homo sapiens; settings: Homo sapiens, IST-SL2;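 further: growth inhibition of human IST-SL2 cells, read out by a cell viability assay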
Description: SANGER: Inhibition of human IST-SL2 cell growth in a cell viability assay.

KP-4 = test: cells; format: functional, cell-based; settings: Homo sapiens;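 further: human KP-4 cells, with growth inhibition read out through a cell viability assay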
Description: SANGER: Inhibition of human KP-4 cell growth in a cell viability assay.

MFH-ino = test: cells; format: functional, cell-based, Homo sapiens; settings: Homo sapiens, MFH-ino;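 further: growth inhibition of human MFH-ino cells, read out by a cell viability assay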
Description: SANGER: Inhibition of human MFH-ino cell growth in a cell viability assay.

MG-63 = test: cells; format: functional, cell-based; settings: Homo sapiens;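 further: growth inhibition of human MG-63 cells, read out with a cell viability assay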
Description: SANGER: Inhibition of human MG-63 cell growth in a cell viability assay.

MHH-ES-1 = test: cells; format: functional, cell-based; settings: Homo sapiens
Description: SANGER: Inhibition of human MHH-ES-1 cell growth in a cell viability assay.

MIA PaCa-2 = test: cells; format: functional, cell-based; settings: Homo sapiens;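 further: growth inhibition of MIA PaCa-2 cells, read out with a cell viability assay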
Description: SANGER: Inhibition of human MIA-PaCa-2 cell growth in a cell viability assay.

MKN-28 = test: cells; format: functional, cell-based; settings: Homo sapiens;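 further: cell viability assay read-out, IC50 reflects suppression of growth of human MKN-28 cells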
Description: SANGER: Inhibition of human MKN28 cell growth in a cell viability assay.

MeWo = test: cells; format: functional, cell-based; settings: Homo sapiens;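 further: growth inhibition of MeWo cells, determined by a cell viability readout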
Description: SANGER: Inhibition of human Mewo cell growth in a cell viability assay.

NALM-6 = test: cells; format: functional, cell-based, Homo sapiens; settings: Homo sapiens, NALM-6;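 further: growth inhibition of NALM-6 cells, read out with a cell viability assay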
Description: SANGER: Inhibition of human NALM-6 cell growth in a cell viability assay.

NCCIT = test: SANGER: Inhibition of human NCCIT cell growth in a cell viability assay.; format: functional, cell-based; settings: Homo sapiens, NCCIT
NCI-H1623 = test: cells; format: functional, cell-based; settings: Homo sapiens;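 further: cell viability assay used as the read-out for growth inhibition of NCI-H1623 cells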
Description: SANGER: Inhibition of human NCI-H1623 cell growth in a cell viability assay.

NCI-H187 = test: cells; format: functional, cell-based, Homo sapiens; settings: Homo sapiens, NCI-H187;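 further: growth inhibition of NCI-H187 cells, read out as cell viability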
Description: SANGER: Inhibition of human NCI-H187 cell growth in a cell viability assay.

NCI-H2347 = test: cells; format: functional, cell-based; settings: Homo sapiens;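 further: growth inhibition of the cell line, read out with a cell viability assay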
Description: SANGER: Inhibition of human NCI-H2347 cell growth in a cell viability assay.

NCI-H28 = test: cells; format: functional, cell-based; settings: Homo sapiens;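 further: growth inhibition of human NCI-H28 cells, read out as cell viability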
Description: SANGER: Inhibition of human NCI-H28 cell growth in a cell viability assay.

NCI-H441 = test: cells; format: functional, cell-based; settings: Homo sapiens;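 further: growth inhibition of NCI-H441 cells, read out with a cell viability assay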
Description: SANGER: Inhibition of human NCI-H441 cell growth in a cell viability assay.

NCI-H460 = test: cells; format: functional, cell-based; settings: Homo sapiens;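 further: cell viability assay scoring growth inhibition of human NCI-H460 cells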
Description: SANGER: Inhibition of human NCI-H460 cell growth in a cell viability assay.

NCI-H719 = test: cells; format: functional, cell-based, Homo sapiens; settings: Homo sapiens, NCI-H719;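 further: growth inhibition of the cultured cell line, read out with a viability assay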
Description: SANGER: Inhibition of human NCI-H719 cell growth in a cell viability assay.

NCI-H889 = test: cells; format: functional, cell-based, Homo sapiens; settings: Homo sapiens, NCI-H889;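 further: cell growth inhibition of the cell line, read out with a viability assay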
Description: SANGER: Inhibition of human NCI-H889 cell growth in a cell viability assay.

OE33 = test: cells; format: functional, cell-based; settings: Homo sapiens;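 further: growth inhibition of human OE33 cells, measured by a cell viability assay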
Description: SANGER: Inhibition of human OE33 cell growth in a cell viability assay.

OVCAR-8 = test: cells; format: functional, cell-based; settings: Homo sapiens;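 further: growth inhibition of human OVCAR-8 cells, read out by a cell viability assay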
Description: SANGER: Inhibition of human OVCAR-8 cell growth in a cell viability assay.

P12-Ichikawa = test: cells; format: functional, cell-based; settings: Homo sapiens
P31-FUJ = test: cells; format: functional, cell-based, Homo sapiens; settings: Homo sapiens, P31-FUJ;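 further: growth inhibition of P31-FUJ cells, read out with a viability assay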
Description: SANGER: Inhibition of human P31-FUJ cell growth in a cell viability assay.

PANC-08-13 = test: cells; format: functional, cell-based; settings: Homo sapiens
Description: SANGER: Inhibition of human PANC-08-13 cell growth in a cell viability assay.

Panc1005 = test: cells; format: functional, cell-based; settings: Homo sapiens;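 further: growth inhibition of human PANC-10-05 cells, measured by a cell viability assay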
Description: SANGER: Inhibition of human PANC-10-05 cell growth in a cell viability assay.

RCM-1 = test: cells; format: functional, cell-based; settings: Homo sapiens;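 further: growth inhibition of the RCM-1 line, determined with a cell viability readout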
Description: SANGER: Inhibition of human RCM-1 cell growth in a cell viability assay.

RO82-W-1 = test: cells; format: functional, cell-based; settings: Homo sapiens;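 further: growth inhibition of human RO82-W-1 cells, measured with a cell viability assay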
Description: SANGER: Inhibition of human RO82-W-1 cell growth in a cell viability assay.

SCC-25 = test: cells; format: functional, cell-based; settings: Homo sapiens;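 further: growth inhibition of SCC-25 cells, measured with a cell viability assay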
Description: SANGER: Inhibition of human SCC-25 cell growth in a cell viability assay.

SF-295 = test: cells; format: functional, cell-based; settings: Homo sapiens;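 further: growth inhibition of SF-295 cells, read out with a cell viability assay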
Description: SANGER: Inhibition of human SF295 cell growth in a cell viability assay.

SK-MEL-28 = test: cells; format: functional, cell-based; settings: Homo sapiens;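 further: growth inhibition of human SK-MEL-28 cells, read out with a cell viability assay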
Description: SANGER: Inhibition of human SK-MEL-28 cell growth in a cell viability assay.

SK-MEL-30 = test: cells; format: functional, cell-based; settings: Homo sapiens;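 further: growth inhibition of SK-MEL-30 cells, determined with a cell viability assay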
Description: SANGER: Inhibition of human SK-MEL-30 cell growth in a cell viability assay.

SK-N-AS = test: cells; format: functional, cell-based; settings: Homo sapiens;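 further: growth inhibition of human SK-N-AS cells, measured with a cell viability assay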
Description: SANGER: Inhibition of human SK-N-AS cell growth in a cell viability assay.

SW948 = test: cells; format: functional, cell-based; settings: Homo sapiens;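 further: growth inhibition of SW948 cells, read out with a cell viability assay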
Description: SANGER: Inhibition of human SW948 cell growth in a cell viability assay.

SAOS-2 = test: cells; format: functional, cell-based; settings: Homo sapiens;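 further: growth inhibition of human Saos-2 cells determined by a cell viability assay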
Description: SANGER: Inhibition of human Saos-2 cell growth in a cell viability assay.

23132-87 = test: cells; format: functional, cell-based; settings: Homo sapiens
Description: SANGER: Inhibition of human 23132-87 cell growth in a cell viability assay.

5637 = test: cells; format: functional, cell-based; settings: Homo sapiens
Description: SANGER: Inhibition of human 5637 cell growth in a cell viability assay.

647-V = test: cells; format: functional, cell-based; settings: Homo sapiens;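 further: growth inhibition of 647-V cells, read out with a cell viability assay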
Description: SANGER: Inhibition of human 647-V cell growth in a cell viability assay.

769-P = test: cells; format: functional, cell-based; settings: Homo sapiens
Description: SANGER: Inhibition of human 769-P cell growth in a cell viability assay.

8305C = test: cells; format: functional, cell-based; settings: Homo sapiens
Description: SANGER: Inhibition of human 8305C cell growth in a cell viability assay.

A-431 = test: cells; format: functional, cell-based; settings: Homo sapiens;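 further: growth inhibition of A-431 cells, determined with a cell viability read-out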
Description: SANGER: Inhibition of human A431 cell growth in a cell viability assay.

BCPAP = test: cells; format: functional, cell-based; settings: Homo sapiens;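 further: growth inhibition of BCPAP cells, read out in a cell viability assay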
Description: SANGER: Inhibition of human BCPAP cell growth in a cell viability assay.

BHT-101 = test: cells; format: functional, cell-based; settings: Homo sapiens
Description: SANGER: Inhibition of human BHT-101 cell growth in a cell viability assay.

BL-41 = test: cells; format: functional, cell-based; settings: Homo sapiens;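 further: growth inhibition of human BL-41 cells, read out with a cell viability assay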
Description: SANGER: Inhibition of human BL-41 cell growth in a cell viability assay.

CAL-72 = test: cells; format: functional, cell-based; settings: Homo sapiens;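 further: cell viability assay measuring inhibition of proliferation in the CAL-72 cell line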
Description: SANGER: Inhibition of human CAL-72 cell growth in a cell viability assay.

U2OS = test: cells; format: functional, cell-based, U-2-OS; settings: Homo sapiens;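 further: growth inhibition of human U-2-OS cells, determined with a cell viability assay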
Description: SANGER: Inhibition of human U-2-OS cell growth in a cell viability assay.

UMC-11 = test: cells; format: functional, cell-based; settings: Homo sapiens;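 further: growth inhibition of UMC-11 cells, read out with a cell viability assay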
Description: SANGER: Inhibition of human UMC-11 cell growth in a cell viability assay.

WM-115 = test: cells; format: functional, cell-based; settings: Homo sapiens
Description: SANGER: Inhibition of human WM-115 cell growth in a cell viability assay.

WSU-NHL = test: cells; format: functional, cell-based, Homo sapiens; settings: Homo sapiens, WSU-NHL;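 further: growth inhibition of human WSU-NHL cells, read out with a cell viability assay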
Description: SANGER: Inhibition of human WSU-NHL cell growth in a cell viability assay.

Measured: IC50

COc1ccc(-c2cc3nccn3c(Nc3ncccc3C(N)=O)n2)cc1OC
5.4 µM: MIA PaCa-2
3.17 µM: BCPAP
2420 nM: 8305C
2690 nM: HCC1599
4.37 µM: P12-Ichikawa
1380 nM: WSU-NHL
4.15 µM: Panc1005
2460 nM: NCI-H460
1070 nM: IST-SL2
5.75 µM: G-401
417 nM: NALM-6
2360 nM: NCCIT
7.3 µM: 647-V
1730 nM: A-431
5.65 µM: NCI-H441
4.49 µM: MKN-28
1390 nM: BL-41
754 nM: HC-1
980 nM: 769-P
> 8 µM: all other assays above

O=S(=O)(O)c1ccc2cc(/N=N/c3cc(S(=O)(=O)O)c4cccnc4c3O)ccc2c1
> 16000 nM: HC-1 | HCC1599 | IST-SL2 | NALM-6 | NCCIT | NCI-H460 | 769-P | 8305C | A-431 | BL-41 | WSU-NHL
> 16 µM: all other assays above
